Several values for one entry are separate records, joined by “and”; a condition that tells them apart may be missing. Identical values can stand only once. Like-named read-outs stand apart in the source and are kept apart here.
Experiments:
[1] = molecular target: T1, CYP1A2 (Homo sapiens, UniProt P05177); test: Inhibition of CYP1A2 activity in pooled human liver microsomes (phenacetin 50 μM to acetaminophen); type: in vitro ADME
T1 sequence (P05177 1-516): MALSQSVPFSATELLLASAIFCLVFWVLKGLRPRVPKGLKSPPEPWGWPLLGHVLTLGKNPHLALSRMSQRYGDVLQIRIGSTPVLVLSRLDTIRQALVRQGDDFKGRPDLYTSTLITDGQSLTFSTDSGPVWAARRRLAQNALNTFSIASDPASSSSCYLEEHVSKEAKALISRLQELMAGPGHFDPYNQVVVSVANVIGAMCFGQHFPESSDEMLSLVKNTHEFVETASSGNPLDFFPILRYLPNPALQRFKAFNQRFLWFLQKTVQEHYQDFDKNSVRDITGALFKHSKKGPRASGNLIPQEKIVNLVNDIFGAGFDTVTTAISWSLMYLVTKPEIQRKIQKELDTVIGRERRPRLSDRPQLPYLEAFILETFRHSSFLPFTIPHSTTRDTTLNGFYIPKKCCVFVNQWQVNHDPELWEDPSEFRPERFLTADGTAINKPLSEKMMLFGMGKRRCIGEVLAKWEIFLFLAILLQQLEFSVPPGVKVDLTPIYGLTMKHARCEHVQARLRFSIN
Protocol: (§1) Microsomes were prepared by differential centrifugation of liver homogenates pooled from at least ten human donors.
(§2) After a 5 minute preincubation, NADPH regenerating system (NRS) was added to initiate the reaction. CYP2A6 and CYP3A4 incubations were for 10 minutes. All other incubations were for 30 minutes.
(§3) Incubations for CYP2C8 were terminated by adding 1.0 mL of ACN, while all other incubations were terminated by adding 1.0 mL of methanol.
(§4) Vehicle control experiments were performed to establish a baseline value for enzyme activity. […] Four replicates were performed.
(§5) Two replicates were performed. […] No interference was detected in any of the metabolite assay methods used.

[2] = molecular target: CYP2C19 (Homo sapiens, UniProt P33261);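 further: CYP2C19 incubations ran for 30 minutes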
Chain of CYP2C19 (P33261 whole entry): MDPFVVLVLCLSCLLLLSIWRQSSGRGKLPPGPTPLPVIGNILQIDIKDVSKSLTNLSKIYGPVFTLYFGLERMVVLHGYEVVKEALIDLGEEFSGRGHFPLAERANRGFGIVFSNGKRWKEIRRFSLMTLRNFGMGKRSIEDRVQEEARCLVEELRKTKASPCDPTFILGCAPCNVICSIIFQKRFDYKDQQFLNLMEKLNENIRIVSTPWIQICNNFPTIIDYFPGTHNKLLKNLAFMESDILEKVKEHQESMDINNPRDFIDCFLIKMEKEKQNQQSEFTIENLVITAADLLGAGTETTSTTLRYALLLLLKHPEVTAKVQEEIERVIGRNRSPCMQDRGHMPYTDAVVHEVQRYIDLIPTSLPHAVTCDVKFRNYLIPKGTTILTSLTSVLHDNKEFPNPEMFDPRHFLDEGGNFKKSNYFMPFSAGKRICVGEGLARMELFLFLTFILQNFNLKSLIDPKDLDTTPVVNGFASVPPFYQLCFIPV
Protocol: as §1, §2, §3, §4, §5

[3] = molecular target: CYP2C9 (Homo sapiens, UniProt P11712); test: Metabolism of metaxalone by expressed recombinant human CYP2C9 (Example 1); conditions: 30 min
Chain of CYP2C9 (P11712 whole entry): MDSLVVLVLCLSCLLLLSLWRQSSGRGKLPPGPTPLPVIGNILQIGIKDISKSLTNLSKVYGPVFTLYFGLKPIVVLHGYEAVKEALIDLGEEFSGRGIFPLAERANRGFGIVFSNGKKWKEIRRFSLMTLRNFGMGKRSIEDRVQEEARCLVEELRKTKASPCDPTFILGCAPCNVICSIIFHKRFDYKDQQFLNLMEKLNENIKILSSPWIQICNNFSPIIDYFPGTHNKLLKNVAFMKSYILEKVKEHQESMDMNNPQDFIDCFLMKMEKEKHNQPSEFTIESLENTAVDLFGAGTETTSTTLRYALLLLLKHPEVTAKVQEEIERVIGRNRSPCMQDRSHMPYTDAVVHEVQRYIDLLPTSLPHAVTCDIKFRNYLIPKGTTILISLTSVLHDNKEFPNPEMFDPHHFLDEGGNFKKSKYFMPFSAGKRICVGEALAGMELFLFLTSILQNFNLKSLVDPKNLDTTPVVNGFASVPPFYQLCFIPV
Protocol: (§6) Commercially available microsomes from baculovirus-infected insect cells containing singly-expressed recombinant wild-type (*1 allele) human CYP enzymes and cDNA-expressed human cytochrome p450 oxidoreductase [BD SUPERSOMES Enzymes; BD Biosciences Discovery Labware (Woburn, Mass.)] were used.
(§7) After a 5-minute pre-incubation, an NADPH regenerating system (NRS) was added to the incubation mixtures to initiate reactions, with a final incubation volume of 0.5 mL. Incubations were continued for 30 minutes, and then terminated, except for those for CYP2C19, which were incubated for 36 minutes prior to termination.
(§8) Matrix controls were performed to determine the background signal from the matrix components (microsomes (10 pmol p450), 01N Tris buffer, NRS, and 1% methanol). […] After a 5-minute pre-incubation, 2% sodium bicarbonate solution was added to the incubation mixtures. Incubation was for 30 minutes at a final volume of 0.5 mL. Matrix and metabolic negative controls were terminated by adding an equal volume of methanol. […] Analysis of samples was subsequent to storage at −70° C.

[4] = molecular target: CYP2D6 (Homo sapiens, UniProt P10635); test: Metabolism of metaxalone by expressed recombinant human CYP2D6 (Example 1); conditions: 30 min;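 further: reactions in 0.5 mL were started by adding an NADPH regenerating system after 5 min preincubation, with background signal estimated from controls containing only matrix components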
Chain of CYP2D6 (P10635 whole entry): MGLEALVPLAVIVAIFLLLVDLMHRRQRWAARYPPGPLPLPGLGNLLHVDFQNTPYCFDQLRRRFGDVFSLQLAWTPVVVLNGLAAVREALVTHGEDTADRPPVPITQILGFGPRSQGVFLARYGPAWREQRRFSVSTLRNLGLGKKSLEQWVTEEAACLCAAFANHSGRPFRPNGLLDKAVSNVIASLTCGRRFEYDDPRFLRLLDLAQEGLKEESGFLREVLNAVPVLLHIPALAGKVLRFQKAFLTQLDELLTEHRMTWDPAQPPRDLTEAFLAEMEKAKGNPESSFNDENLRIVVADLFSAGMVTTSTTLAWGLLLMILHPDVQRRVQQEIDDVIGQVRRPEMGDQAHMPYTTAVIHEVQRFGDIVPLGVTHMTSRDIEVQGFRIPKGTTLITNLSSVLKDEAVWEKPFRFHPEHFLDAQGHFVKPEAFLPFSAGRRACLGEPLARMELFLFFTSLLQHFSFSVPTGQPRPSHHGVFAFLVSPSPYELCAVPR
Protocol: as §6, §7, §8

Cc1cc(C)cc(OCC2CNC(=O)O2)c1 (stereo not shown) [metaxalone, 5-[(3,5-dimethylphenoxy)methyl]-2-oxazolidinone]
inhibition of CYP activity at a statistically significant level ([1]; 0.3-100 μM metaxalone, p≦0.05): inhibited | Inhibitor ([1]; CYP isozyme 1A2, summary of studies): + | Percent of VC ([1]; metaxalone 0.3 μM): 97.2% | Specific Activity Individual ([1]; metaxalone 0.3 μM): 28.6 pmol/min/mg protein and 27.2 pmol/min/mg protein | Specific Activity Mean ± SD ([1]; metaxalone 0.3 μM): 28.0 ± 0.715 pmol/min/mg protein | Percent of VC ([1]; metaxalone 1 μM): 92.3% | Specific Activity Individual ([1]; metaxalone 1 μM): 26.6 pmol/min/mg protein | Specific Activity Mean ± SD ([1]; metaxalone 1 μM): 26.6 ± 0.327 pmol/min/mg protein | Percent of VC ([1]; metaxalone 3 μM): 90.3% | Specific Activity Individual ([1]; metaxalone 3 μM): 26.5 pmol/min/mg protein and 25.1 pmol/min/mg protein and 26.4 pmol/min/mg protein | Specific Activity Mean ± SD ([1]; metaxalone 3 μM): 26.0 ± 0.785 pmol/min/mg protein | Percent of VC ([1]; metaxalone 30 μM): 89.8% | Specific Activity Individual ([1]; metaxalone 30 μM): 25.2 pmol/min/mg protein and 25.8 pmol/min/mg protein and 26.7 pmol/min/mg protein | Specific Activity Mean ± SD ([1]; metaxalone 30 μM): 25.9 ± 0.725 pmol/min/mg protein | Percent of VC ([1]; metaxalone 100 μM): 82.0% | Specific Activity Individual ([1]; metaxalone 100 μM): 23.7 pmol/min/mg protein and 23.6 pmol/min/mg protein (2×) | Specific Activity Mean ± SD ([1]; metaxalone 100 μM): 23.6 ± 0.0275 pmol/min/mg protein | inhibition of CYP activity at a statistically significant level ([2]; 0.3-100 μM metaxalone, p≦0.05): inhibited | Inhibitor ([2]; CYP isozyme 2C19, summary of studies): + | Percent of VC ([2]; metaxalone 0.3 μM): 84.6% | Specific Activity Individual ([2]; metaxalone 0.3 μM): 19.4 pmol/min/mg protein and 18.9 pmol/min/mg protein | Specific Activity Mean ± SD ([2]; metaxalone 0.3 μM): 19.0 ± 0.399 pmol/min/mg protein | Percent of VC ([2]; metaxalone 1 μM): 67.0% | Specific Activity Individual ([2]; metaxalone 1 μM): 14.8 pmol/min/mg protein | Specific Activity Mean ± SD ([2]; metaxalone 1 μM): 15.0 ± 0.186 pmol/min/mg protein | Percent of VC ([2]; metaxalone 3 μM): 67.7% | Specific Activity Individual ([2]; metaxalone 3 μM): 15.5 pmol/min/mg protein and 14.8 pmol/min/mg protein | Specific Activity Mean ± SD ([2]; metaxalone 3 μM): 15.2 ± 0.317 pmol/min/mg protein | Percent of VC ([2]; metaxalone 30 μM): 63.8% | Specific Activity Individual ([2]; metaxalone 30 μM): 11.1 pmol/min/mg protein and 16.5 pmol/min/mg protein and 15.3 pmol/min/mg protein | Specific Activity Mean ± SD ([2]; metaxalone 30 μM): 14.3 ± 2.82 pmol/min/mg protein | Percent of VC ([2]; metaxalone 100 μM): 64.9% | Specific Activity Individual ([2]; metaxalone 100 μM): 14.5 pmol/min/mg protein and 14.8 pmol/min/mg protein and 14.3 pmol/min/mg protein | Specific Activity Mean ± SD ([2]; metaxalone 100 μM): 14.5 ± 0.274 pmol/min/mg protein | Metaxalone Present Adjusted Individual ([3]; metaxalone 0.5 μM): 0.360 µM and 0.348 µM | Metaxalone Present Adjusted Mean ± SD ([3]; metaxalone 0.5 μM): 0.355 ± 0.00608 µM | Metaxalone Present Raw ([3]; metaxalone 0.5 μM): 0.18 µM and 0.1778 µM and 0.174 µM | Percent of Metabolic Negative Control Individual ([3]; metaxalone 0.5 μM): 103% and 102% | Percent of Metabolic Negative Control Mean ± SD ([3]; metaxalone 0.5 μM): 102 ± 1.75% | Metaxalone Present Adjusted Individual ([3]; metaxalone 2.5 μM): 1.94 µM and 1.93 µM and 1.89 µM | Metaxalone Present Adjusted Mean ± SD ([3]; metaxalone 2.5 μM): 1.92 ± 0.0246 µM | Metaxalone Present Raw ([3]; metaxalone 2.5 μM): 0.9684 µM and 0.9659 µM and 0.946 µM | Percent of Metabolic Negative Control Individual ([3]; metaxalone 2.5 μM): 101% and 100% | Percent of Metabolic Negative Control Mean ± SD ([3]; metaxalone 2.5 μM): 99.7 ± 1.28% | Metaxalone Present Adjusted Individual ([3]; metaxalone 25 μM): 21.3 µM and 21.6 µM and 21.5 µM | Metaxalone Present Adjusted Mean ± SD ([3]; metaxalone 25 μM): 21.5 ± 0.144 µM | Metaxalone Present Raw ([3]; metaxalone 25 μM): 10.66 µM and 10.8 µM and 10.73 µM | Percent of Metabolic Negative Control Individual ([3]; metaxalone 25 μM): 100% and 102% and 101% | Percent of Metabolic Negative Control Mean ± SD ([3]; metaxalone 25 μM): 101 ± 0.675% | Metaxalone Present Adjusted Individual ([4]; metaxalone 0.5 μM): 0.374 µM and 0.297 µM and 0.286 µM | Metaxalone Present Adjusted Mean ± SD ([4]; metaxalone 0.5 μM): 0.319 ± 0.0477 µM | Metaxalone Present Raw ([4]; metaxalone 0.5 μM): 0.1868 µM and 0.1486 µM and 0.1431 µM | Percent of Metabolic Negative Control Individual ([4]; metaxalone 0.5 μM): 128% and 102% and 98.0% | Percent of Metabolic Negative Control Mean ± SD ([4]; metaxalone 0.5 μM): 109 ± 16.3% | Metaxalone Present Adjusted Individual ([4]; metaxalone 2.5 μM): 1.52 µM and 1.54 µM and 1.53 µM | Metaxalone Present Adjusted Mean ± SD ([4]; metaxalone 2.5 μM): 1.53 ± 0.0111 µM | Metaxalone Present Raw ([4]; metaxalone 2.5 μM): 0.7583 µM and 0.7685 µM and 0.767 µM | Percent of Metabolic Negative Control Individual ([4]; metaxalone 2.5 μM): 96.9% and 98.2% and 98.0% | Percent of Metabolic Negative Control Mean ± SD ([4]; metaxalone 2.5 μM): 97.7 ± 0.707% | Metaxalone Present Adjusted Individual ([4]; metaxalone 25 μM): 19.1 µM and 19.7 µM and 18.9 µM | Metaxalone Present Adjusted Mean ± SD ([4]; metaxalone 25 μM): 19.2 ± 0.436 µM | Metaxalone Present Raw ([4]; metaxalone 25 μM): 9.526 µM and 9.845 µM and 9.429 µM | Percent of Metabolic Negative Control Individual ([4]; metaxalone 25 μM): 99.2% and 103% and 98.2% | Percent of Metabolic Negative Control Mean ± SD ([4]; metaxalone 25 μM): 99.9 ± 2.27%
